Measured values: US12059403B2, “Use of SWELL1 inhibitors and modulators to treat type 2 diabetes and obesity” (UNIVERSITY OF IOWA RESEARCH FOUNDATION, priority 2016, dated 2024)
Residue numbers refer to the chain shown, from its start.

Assays:
β-cell VRAC [1] = molecular target: T1, β-cell VRAC (Mus musculus, UniProt Q80WG5); test: Perforated-patch clamp of glucose-activated VRAC in primary mouse β-cells; assay type: cell-based; conditions: 35-37° C.
T1 construct: endogenous in cells; host or cells: MIN6 mouse insulinoma cells
T1 sequence (Q80WG5 1-810): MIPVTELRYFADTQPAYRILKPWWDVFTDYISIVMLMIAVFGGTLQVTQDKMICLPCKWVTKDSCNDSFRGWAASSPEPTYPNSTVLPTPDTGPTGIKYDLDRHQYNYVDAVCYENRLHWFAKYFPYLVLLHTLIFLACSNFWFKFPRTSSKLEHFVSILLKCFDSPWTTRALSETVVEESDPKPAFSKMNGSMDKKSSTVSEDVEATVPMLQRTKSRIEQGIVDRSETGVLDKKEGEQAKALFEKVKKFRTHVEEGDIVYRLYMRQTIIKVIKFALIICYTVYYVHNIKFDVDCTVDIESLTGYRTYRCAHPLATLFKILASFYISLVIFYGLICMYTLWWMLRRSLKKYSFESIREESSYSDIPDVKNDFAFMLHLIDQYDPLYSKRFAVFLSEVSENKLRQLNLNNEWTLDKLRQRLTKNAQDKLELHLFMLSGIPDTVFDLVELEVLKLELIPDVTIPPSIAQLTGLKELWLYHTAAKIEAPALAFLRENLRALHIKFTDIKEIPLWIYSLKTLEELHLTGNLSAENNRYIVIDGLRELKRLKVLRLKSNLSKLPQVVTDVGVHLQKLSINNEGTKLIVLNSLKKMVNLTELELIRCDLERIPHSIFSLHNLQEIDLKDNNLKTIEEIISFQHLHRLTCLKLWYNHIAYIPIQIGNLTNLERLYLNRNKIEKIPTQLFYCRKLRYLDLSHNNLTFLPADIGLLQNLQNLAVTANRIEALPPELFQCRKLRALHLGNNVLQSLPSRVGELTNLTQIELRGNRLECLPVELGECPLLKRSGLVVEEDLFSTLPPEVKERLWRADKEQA
Method: (§1) Having established that SWELL1 is required for this previously enigmatic depolarizing swell-activated Cl^− current in MIN6 cells, and in both mouse and human primary β-cells, whether physiologic glucose-mediated β-cell swelling is sufficient to activate SWELL1-mediated VRAC was investigated. First, β-cell size was measured by light microscopy in WT and SWELL1-deficient primary murine and human β-cells in response to glucose-stimulated swelling (at 35-37° C.). WT murine β-cells swell 6.8±1.6% in cross-sectional area upon perfusion of 16.7 mM glucose (from 1 mM basal glucose) and reach a maximum size at 12 minutes post glucose-stimulation, followed by a reduction in β-cell size, consistent with regulatory volume decrease (RVD). […] WT human β-cells show a similar trend, swelling 8.6±3.5%, followed by RVD. […] Next, the perforated-patch clamp technique was applied to primary β-cells at 35-37° C. in order to measure currents under the same physiological conditions that induce glucose-mediated β-cell swelling. β-cell VRAC activates in response to physiological increases in glucose in MIN6 cells and in both mouse and human β-cells, and is blocked by the selective VRAC inhibitor, DCPIB. […]

β-cell VRAC [2] = molecular target: T2, β-cell VRAC (Homo sapiens, UniProt Q8IWT6); test: Perforated-patch clamp of glucose-activated VRAC in primary human β-cells; assay type: cell-based; conditions: 35-37° C.
T2 construct: from tissue; host or cells: primary β-cells from human pancreatic islets
T2 sequence (Q8IWT6 1-810): T1 sequence (Q80WG5 1-810) with S75P, S76G, V86I, A276I, V591A, V715I, A722T, S792N
Method: as §1

β-cell VRAC [3] = molecular target: T1, β-cell VRAC; test: Perforated-patch clamp of glucose-activated VRAC in MIN6 cells; assay type: cell-based; conditions: 35-37° C.
Method: as §1

[4] = molecular target: T3, volume-regulated anion current (VRAC) (Mus musculus, UniProt Q80WG5); test: Patch-clamp of swell-activated current in 3T3-F442A adipocytes upon hypotonic swelling; assay type: cell-based; conditions: murine 3T3-F442A adipocytes
T3 construct: present in the murine 3T3-F442A and human adipocyte cell lines (NPAD) upon hypotonic swelling; endogenous in cells; host or cells: 3T3-F442A adipocytes
T3 sequence (Q80WG5 1-810): T1 sequence (Q80WG5 1-810)

[5] = molecular target: T4, volume-regulated anion current (VRAC) (Homo sapiens, UniProt Q8IWT6); test: Patch-clamp of swell-activated current in human adipocyte cell line (NPAD) upon hypotonic swelling; assay type: cell-based
T4 construct: present in the murine 3T3-F442A and human adipocyte cell lines (NPAD) upon hypotonic swelling; endogenous in cells; host or cells: human adipocyte cell line (NPAD)
T4 sequence (Q8IWT6 1-810): T1 sequence (Q80WG5 1-810) with S75P, S76G, V86I, A276I, V591A, V715I, A722T, S792N

SWELL1 = SWELL1 protein expression in cultured adipocytes; assay type: cell-based
[6] = molecular target: T3, volume-regulated anion current (VRAC); test: Patch-clamp of swell-activated current in mature murine iWAT adipocytes swelled by positive pressure; assay type: cell-based; conditions: positive pressure swelling, whole-cell
Method: To identify a putative swell-activated ionic current in adipocytes, patch-clamp recordings were performed on mature murine adipocytes freshly isolated from inguinal white adipose tissue (iWAT). Ionic currents were measured in voltage-clamp mode while simultaneously swelling the adipocyte by applying positive pressure (˜3-5 mmHg, whole-cell configuration) via the patch-pipette. After a few minutes, activation of a large swell-activated current was observed. This current is outward rectifying, characterized by larger outward current at positive voltages compared to inward currents at negative voltages during sequential voltage ramps or voltage steps, with the current amplitude proportional to the extent of adipocyte swelling. This current reverses direction at −11.7±2.5 mV, which is near the reversal potential of chloride under these conditions (−11.5 mV, junction potential corrected). […] Finally, this swell-activated adipocyte current is blocked by 4-[(2-Butyl-6,7-dichloro-2-cyclopentyl-2,3-dihydro-1-oxo-1H-inden-5-yl)oxy]butanoic acid (DCPIB), a selective blocker of the volume-regulated anion current (VRAC) or volume-sensitive outwardly rectifying chloride current (VSOR).

[7] = tested on: mice raised on a high-fat diet; test: Glucose tolerance in mice raised on a high-fat diet; assay type: in vivo
[8] = tested on: WT primary murine β-cells; test: Glucose-stimulated Ca2+ signaling (GCaMP6s imaging) in WT primary murine β-cells; assay type: cell-based; conditions: 10 μM
Source text: SWELL1-dependent Ca^2+ signaling was then examined in primary mouse and human β-cells. Adenoviruses expressing the genetically encoded Ca^2+-sensor GCaMP6s under control of the rat insulin promoter 1 (RIP1), either alone (Ad-RIP1-GCaMP6s), or in combination with Cre-recombinase (Ad-RIP1-Cre-P2A-GCaMP6s), were generated. This approach provides a robust β-cell restricted fluorescent Ca^2+ sensor while simultaneously allowing for β-cell targeted Cre-mediated SWELL1 deletion in cultured SWELL1^fl/fl islets isolated from SWELL1^fl/fl mice. […] A similar approach was used in human islets, whereby islets were co-transduced with Ad-RIP1-GCaMP6s and either Ad-U6-shSWELL1-mCherry or Ad-U6-shSCR-mCherry. Upon islet dissociation, only double-labelled GCaMP6s+/mCherry+ primary human β-cells were imaged. As with mouse primary β-cells, robust glucose-stimulated Ca^2+ transients in Ad-shSCR treated human primary β-cells were observe, and this is markedly abograted upon Ad-shSWELL1-mediated SWELL1 knock-down. […] In pancreatic β-cells, physiological intracellular Cl^− concentration is maintained at 34-36 mM by NKCC1 transporters to generate a depolarizing Cl^− current upon activation of a Cl^− conductance, since ECl−=˜−35 mV. […]

WT MIN6 cells = test: Glucose-stimulated intracellular Ca2+ in WT MIN6 cells; assay type: cell-based, mouse; conditions: 10 μM
Method: To determine whether SWELL1-mediated depolarizing Cl^− current is required to depolarize the β-cell membrane potential to the activation threshold of voltage-gated Ca^2+ channels (VGCC) essential for insulin granule fusion, glucose-stimulated intracellular Ca^2+ was measured in WT and SWELL1-deficient MIN6 β-cells, primary mouse and human β-cells.

| Compound | β-cell VRAC activated by physiological increases in glucose (β-cell VRAC [1]) | β-cell VRAC activated by physiological increases in glucose (β-cell VRAC [2]) | β-cell VRAC activated by physiological increases in glucose (β-cell VRAC [3]) | swell-activated current [4] | swell-activated current [5] | SWELL1 protein expression (SWELL1) | swell-activated adipocyte current [6] | glucose tolerance associated with obesity [7] | glucose-stimulated Ca2+ signaling [8] | glucose-stimulated Ca2+ signaling (WT MIN6 cells) |
| --- | --- | --- | --- | --- | --- | --- | --- | --- | --- | --- |
| CCCCC1(C2CCCC2)Cc2cc(OCCCC(=O)O)c(Cl)c(Cl)c2C1=O (stereo not shown) [DCPIB, 4-[(2-Butyl-6,7-dichloro-2-cyclopentyl-2,3-dihydro-1-oxo-1H-inden-5-yl)oxy]butanoic acid] | blocked | blocked | blocked | fully inhibited | fully inhibited | induced a compensatory increase | blocked | normalized |  |  |
| CCCCNc1cc(C(=O)O)cc(S(N)(=O)=O)c1Oc1ccccc1 [bumetanide] |  |  |  |  |  |  |  |  | fully inhibits | fully inhibits |
